Experimental data published in PubChem BioAssay (NCI).
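How tested: cells in 96-well plates exposed to compound for 48 hours at five concentrations. The concentration for 50% growth inhibition is given as GI50. TGI: total growth inhibition.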

Assays:
Assay in all cases: inhibition of tumour cell growth, NCI panel, 48 h
UACC-62 melanoma = test system: UACC-62 melanoma
CAKI-1 renal = test system: CAKI-1 renal
SNB-75 CNS = test system: SNB-75 CNS
OVCAR-8 ovarian = test system: OVCAR-8 ovarian
KM12 colon = test system: KM12 colon
RPMI-8226 leukemia = test system: RPMI-8226 leukemia
SNB-19 CNS = test system: SNB-19 CNS
HCT-116 colon = test system: HCT-116 colon
SW-620 colon = test system: SW-620 colon
HL-60(TB) leukemia = test system: HL-60(TB) leukemia

SMILES	GI50 (UACC-62 melanoma) [µM]	TGI (UACC-62 melanoma) [µM]	GI50 (CAKI-1 renal) [µM]	TGI (CAKI-1 renal) [µM]	GI50 (SNB-75 CNS) [µM]	TGI (SNB-75 CNS) [µM]	GI50 (OVCAR-8 ovarian) [µM]	TGI (OVCAR-8 ovarian) [µM]	GI50 (KM12 colon) [µM]	TGI (KM12 colon) [µM]	GI50 (RPMI-8226 leukemia) [µM]	TGI (RPMI-8226 leukemia) [µM]	GI50 (SNB-19 CNS) [µM]	TGI (SNB-19 CNS) [µM]	GI50 (HCT-116 colon) [µM]	TGI (HCT-116 colon) [µM]	GI50 (SW-620 colon) [µM]	TGI (SW-620 colon) [µM]	GI50 (HL-60(TB) leukemia) [µM]	TGI (HL-60(TB) leukemia) [µM]
COc1ccc(C2C3=C(NC(=O)C2C#N)c2ccc4ccccc4c2OCC3)cc1 (configuration not stated)	19	45.5	33.8	70.3	21.9	69.1	21.4	45.3	> 100	> 100	> 100	> 100	58.8	> 100	35.8	> 100	> 100	> 100	65.8	> 100
COc1ccc(-c2cc(C(=O)Nc3cccc(C(F)(F)F)c3)[nH]c(=S)n2)cc1		> 100		> 100		> 100		> 100		> 100		> 100		> 100		> 100		> 100		> 100
O=C1OCC(c2ccc(O)c(O)c2)=C1c1cc(O)c(O)c(O)c1	52.7	> 100	14.3	27.9	54	> 100	75	> 100	23.8	55.6	26.2	79	25.3	> 100	18.1	35.5	21.1	42.8		
CC(C)(C)c1nc2c(o1)C(=Nc1ccccc1)c1ccccc1C2=O		5.08		64.9		13.6		26.2		50.3		50		27.5		12.8		18.4		16.6
COc1ccc(-c2cc3cccc(OC)c3c(=O)o2)cc1OC	0.661	> 100	0.094	32	53.1	> 100	> 100	> 100	92.2	> 100	29.7	> 100	41.3	> 100	29.6	> 100	40	> 100	76.2	> 100
O=C(NO)c1ccc(C(=O)NO)cc1		> 100		> 100		> 100		> 100		> 100		> 100		> 100		> 100		> 100		> 100
COCCNCC(O)Cn1c2ccc(Cl)cc2c2cc(Cl)ccc21 (configuration not stated)			1.7	3.36	1.12	4.15	2.06	5.08	1.9	3.42	2.14	5.25	3.48	16.6			1.83	3.64	2.05	4.51
O=[N+]([O-])c1ccccc1S(=O)c1ccccc1 (configuration not stated)		> 100		> 100		58.7		> 100		> 100		> 100		> 100		> 100		> 100		> 100
CCOC(C)OCC#CCCBr (configuration not stated)		> 100		> 100		> 100		> 100		> 100		> 100		> 100		> 100		> 100		> 100
COc1cc(-c2c3c(cn2S(=O)(=O)c2ccccc2)-c2nc(N)sc2CC3)cc(OC)c1OC	0.729	> 100	0.724	36.6	0.222	1.1	2.4	29.2	0.722	> 100	0.79	56	11	> 100	0.515	21.3	0.39	> 100	0.385	4.32
O=S(=O)(Nc1ccc(-c2nc(-c3cccc(OCCN4CCOCC4)c3)c(-c3ccnc(Br)c3)[nH]2)cc1)c1ccccc1	2.66	12.1	2.56	14.5			3.27	> 100	3.21	> 100	2.5	> 100	6.07	> 100	3.09	> 100	3.53	> 100		
COc1cc2c(cc1OC)C1c3ccccc3C(C#N)(C2)N(C(=O)c2ccccc2)C1O (configuration not stated)		> 100				> 100		> 100		> 100		> 100		> 100		> 100		> 100		> 100
Cc1ccc(S(=O)(=O)N(C)C)cc1[N+](=O)[O-]	> 100	> 100	> 100	> 100			> 100	> 100	> 100	> 100	> 100	> 100	> 100	> 100	> 100	> 100	> 100	> 100		
CN(C)CCC1(C2=CCCC2)CC/C(=C\c2ccc3c(c2)OCO3)C1=O (configuration not stated)		39.5						29		31.8		73.9		43.5		26.9		29.9		37
COc1nc(OC)c2c(=O)oc(-c3ccccc3)cc2n1		> 100		> 100		> 100		> 100		> 100		> 100		> 100		> 100		> 100		
CCCCOC1CC2(c3ccc(OC)cc3)C(=O)c3ccccc3N2O1 (configuration not stated)		> 10		> 100		> 100		> 100		> 100		65.7		> 10		> 100		> 100		
CC(NC(=O)c1ccccc1)C(=O)N(Cc1ccccc1)Cc1ccccc1 (configuration not stated)		30.7		> 100		> 100				58		45.7		> 100		66		> 100		
O=C1CCC2(c3ccc(F)cc3)Nc3ccccc3N12 (configuration not stated)		> 100		> 100		> 100		> 100		> 100		> 100						> 100		> 100
CC(C)C1CN1CC(O)Cn1ccnc1[N+](=O)[O-] (configuration not stated)		> 100		> 100		> 100		> 100		> 100				> 100		> 100		> 100		

SMILES	GI50 (UACC-62 melanoma) [µM]	TGI (UACC-62 melanoma) [µM]	GI50 (CAKI-1 renal) [µM]	TGI (CAKI-1 renal) [µM]	GI50 (SNB-75 CNS) [µM]	TGI (SNB-75 CNS) [µM]	GI50 (OVCAR-8 ovarian) [µM]	TGI (OVCAR-8 ovarian) [µM]	GI50 (KM12 colon) [µM]	TGI (KM12 colon) [µM]	GI50 (RPMI-8226 leukemia) [µM]	TGI (RPMI-8226 leukemia) [µM]	GI50 (SNB-19 CNS) [µM]	TGI (SNB-19 CNS) [µM]	GI50 (HCT-116 colon) [µM]	TGI (HCT-116 colon) [µM]	GI50 (SW-620 colon) [µM]	TGI (SW-620 colon) [µM]	GI50 (HL-60(TB) leukemia) [µM]	TGI (HL-60(TB) leukemia) [µM]
Cn1ncc2cc(-c3cnc(N)c(Cl)c3N3CCC4(CCNC4=O)CC3)ccc21	30.7	> 100			17	77.8	39.1	> 100	32.3	> 100	16	95.5	94.2	> 100	37.4	> 100	21.3	> 100	16.8	42.6
COc1ccc(/C=C2/CN(C(=O)c3ccccc3F)C/C(=C\c3ccc(OC)cc3)C2=O)cc1	2.53	11.5	4.87	> 100	11.4	39.8	3.4	85.1	1.91	3.59	0.242	0.714	6.21	20.7	0.392	1.39	1.86	3.84		
COc1cc(OC)cc(N2CCC(c3c(N)nc(N)nc3Cl)CC2)c1		> 100		> 100		> 100		> 100		> 100		> 100		> 100				> 100		> 100
COc1ccc(-c2nc(-c3nc4ccc(F)cc4[nH]3)cc3c2[nH]c2ccccc23)cc1	1.86	4.25	3.87	> 100			1.78	6.69	2.78	12.2	1.16	3.92	2.94	> 100	2.69	8.25	3.73	> 100	2.83	7.23
O=C(NC1CCCCC1)c1c(O)[nH]c(=S)[nH]c1=O		> 100		> 100		> 100		> 100		> 100		> 100		> 100		> 100		> 100		
CN(C)c1c(Cl)c(=O)oc2c1ccc1nc(-c3ccccc3)sc12		> 100		> 100				> 100		> 100		> 100		> 100		> 100		> 100		> 100
Cc1c(Cl)ccc2c1NC(=O)C2(O)CC(=O)c1ccc(Cl)cc1Cl (configuration not stated)		> 50		> 50		> 41.3		> 50		> 50		> 50		> 50		> 50		> 50		
O=c1/c(=C/c2cccc3ccccc23)sc2nc3ccccc3n12		> 100		> 100		> 100		> 100		> 100				> 100		> 100		> 100		> 100
COc1ccc(CC(=O)c2cc(OC)c(OC)cc2C)cc1OC		> 100		> 100		> 100		> 100		> 100		> 100		> 100				> 100		
CCOC(=O)C1NCCc2c1[nH]c1ccccc21 (configuration not stated)		> 10		> 10		> 10		> 10		> 10		> 10						> 10		> 10
Nc1nc2ncn(CCO)c2c(=O)[nH]1		> 100				> 100		> 100				> 100		> 100		> 100		> 100		> 100
c1ccc2c(c1)O[As](O[As]1Oc3ccccc3O1)O2			2.56	8.54	1.87	12	2.59	15.4	7.79	20.6	1.07	4.61	5.56	19.6	3.17	14.1	3.01	14.8	1.49	3.92
CC(=O)O[C@]1(C(C)=O)CC[C@H]2[C@@H]3C[C@H](C)C4=CC(=O)C=C[C@]4(C)[C@@]3(F)[C@@H](O)C[C@@]21C		> 100		> 100		> 100				> 100		> 100		> 100		> 100		> 100		> 100
CCCCN(CC)C(=O)C(=O)C1C(=O)Nc2ccccc2S1=O (configuration not stated)		> 100		> 100		> 100		> 100		> 100		> 100		> 100		> 100		> 100		
N#C/C(=C\c1ccc(CP(=O)(O)O)cc1)C(N)=O		> 100		> 100				> 100		> 100		> 100		> 100		> 100		> 100		> 100
O=C1Nc2ccc(Cl)cc2/C1=C\c1c(-c2ccc(F)cc2)nc2ccccn12	2.58	11.5	2.25	6.45	2.08	7.97	2.28	5.99	2.04	4.61	2.25	7.86	3.33	27.4			3	11.7	1.88	4.48
Cc1oc2ccccc2c(=O)c1Cn1nnc2ccccc21		> 100				> 100		> 100		> 100		> 100		> 100		> 100		> 100		> 100
COc1cc2c(-c3nc4cc(Cl)c(F)cc4s3)cc(=O)oc2c(C)c1OC	1.3	2.69	0.307	0.78	0.62	1.92	1.5	3.47												
COc1cc2c(cc1OC)C13CCN4CC5=CCOC(CC(=O)O)C(C5CC41)C3N2 (configuration not stated)		> 100		> 100				> 100		> 100		> 100		> 100		> 100		> 100		> 100
